Source: patent US5124325A, “Therapeutic agents of metabolic bone disease” (Kyorin Pharmaceutical Co., Ltd., priority 1989, dated 1992)

Test system: bone resorption
Test: Inhibition of bone resorption (45Ca release from prelabeled rat embryonic limb bones stimulated with IL-1β)
Format: cell-based, rat (SD)
Details: 25 μg/ml, 45Ca prelabeled rat embryonic limb bone, 72 hours culture
Protocol: ^45 Ca prelabeled rat embryonic limbs for the measurement of bone resorption were prepared by the method of Raisz (J. Clin. Invest. 44, 103 (1965)). Briefly, 17th day pregnant SD rats were injected subcutaneously with 200 μCi of calcium-45 as calcium chloride. Two days later, the rats were killed, the embryos removed and washed with sterilized phosphated buffer solution (PBS). The forelimbs were dissected free of muscle and the cartilagious ends were cut off. The bone shaft was cultured with BGJb medium containing 20% bovine serum albumin (BSA).
The effect of each example compound of this invention on bone resorption was assessed by the method of Tsuda et al (J. Bone & Mineral Res. 1, 207 (1986)) with slight modification. Briefly, the trimmed bone was precultured for 24 hours at 37 ° C. and in an atmosphere of 5% CO2 in air on a millipore filter immersed in 0.6 ml of BGJb medium containing 20% BSA. 24-well plate was used for culture. The bone on the filter was then transferred to a new well filled with the medium containing the compounds of this invention with or without […] and cultured for 72 hours. 0.3 ml of the supernatant was collected and used to determine the ^45 Ca release from the bone. The bone was immersed in 0.3 ml of 1 N HCl for not less than 90 minutes, and 10 ml of ACS II scintillator was added so as to measure the radioactivity in a liquid scintillation counter. The activity of bone resorption was expressed as percent of ^45 Ca release to supernatant from labeled bone (sum of the radioactivity of the bone and the medium). One bone was cultured on one well and each experimental group consisted of 5 or 6 bones derived from fetus in one pregnant rat. The activity of bone resorption was determined by the formula.
U: ^45 Ca release without adding IL-1β
C: ^45 Ca release by adding IL-1β
T: ^45 Ca release by adding IL-1β and example compound

Row | Compound | inhibition at 25 µg/mL [%]
1 | O=C(O)c1cc(Cl)cc2c1NC(c1ccccc1)CC2 (stereo not shown) [Compound 1, 6-Chloro-2-phenyl-1,2,3,4-tetrahydroquinoline-8-carboxylic acid] | 74
2 | O=C(O)c1cccc2c1NC(c1ccccc1)CC2 (stereo not shown) [Compound 2] | 113
3 | O=C(O)c1cc([N+](=O)[O-])cc2c1NCCC2 [Compound 3] | 100
4 | O=C(O)c1cc(Cl)cc2c1NCCC2 [Compound 4] | 76
5 | O=C(O)c1cccc2c1NCC(c1ccccc1)C2 (stereo not shown) [Compound 5] | 103
6 | O=C(O)c1cccc2c1NC(c1ccc(O)cc1)CC2 (stereo not shown) [Compound 6] | 70
7 | Cc1ccc(S(=O)(=O)Nc2cc3c(c(C(=O)O)c2)NC(c2ccccc2)CC3)cc1 (stereo not shown) [Compound 7, 2-Phenyl-6-p-toluenesulfonylamino-1,2,3,4-tetrahydroquinoline-8-carboxylic acid] | 80
8 | CC(C)Oc1ccc(C2CCc3cccc(C(=O)O)c3N2)cc1 (stereo not shown) [Compound 8, 2-(4-Isopropoxyphenyl)-1,2,3,4-tetrahydroquinoline-8-carboxylic acid] | 92
9 | CC(C)Oc1ccc2c(=O)c(-c3ccccc3)coc2c1 [Ipriflavone, 7-isopropoxyisoflavone, reference compound] | 58

Test system: bone resorption
Test: not given
Details: It has been reported; cited from earlier work

Row | Compound | inhibitory effect on bone resorption (in words)
10 | CC(C)Oc1ccc2c(=O)c(-c3ccccc3)coc2c1 [Ipriflavone, 7-isopropoxyisoflavone, reference compound] | have inhibitory effect on bone resorption
